From patent US11370784B2 (MISSION THERAPEUTICS LIMITED, priority 2016, dated 2022)

molecular target: USP30 (Homo sapiens (Human), UniProt Q70CQ3); assay: USP30 biochemical IC50 assay; details: fluorescence polarisation, TAMRA labelled peptide linked to ubiquitin as substrate; enzyme and compound incubated 30 min at room temp; read-out: IC50 range
Procedure: Reactions were performed in duplicate in black 384 well plates (small volume, Greiner 784076) in a final reaction volume of 21 μl. Either 1 μl of 50% DMSO or diluted compound was added to the plate. USP30 was diluted in reaction buffer (40 mM Tris, pH 7.5, 0.005% Tween 20, 0.5 mg/ml BSA, 5 mM beta-mercaptoethanol) to the equivalent of 0.05 μl/well and 10 μl of diluted USP30 was added to the compound. Enzyme and compound were incubated for 30 min at room temp. Reactions were initiated by the addition of 50 nM of TAMRA labelled peptide linked to ubiquitin via an iso-peptide bond as fluorescence polarisation substrate. Reactions were read immediately after addition of substrate and following a 2 h incubation at room temperature. Readings were performed on a Pherastar Plus (BMG Labtech). λ Excitation 540 nm; λ Emission 590 nm.

USP30, sequence (Q70CQ3 57-517): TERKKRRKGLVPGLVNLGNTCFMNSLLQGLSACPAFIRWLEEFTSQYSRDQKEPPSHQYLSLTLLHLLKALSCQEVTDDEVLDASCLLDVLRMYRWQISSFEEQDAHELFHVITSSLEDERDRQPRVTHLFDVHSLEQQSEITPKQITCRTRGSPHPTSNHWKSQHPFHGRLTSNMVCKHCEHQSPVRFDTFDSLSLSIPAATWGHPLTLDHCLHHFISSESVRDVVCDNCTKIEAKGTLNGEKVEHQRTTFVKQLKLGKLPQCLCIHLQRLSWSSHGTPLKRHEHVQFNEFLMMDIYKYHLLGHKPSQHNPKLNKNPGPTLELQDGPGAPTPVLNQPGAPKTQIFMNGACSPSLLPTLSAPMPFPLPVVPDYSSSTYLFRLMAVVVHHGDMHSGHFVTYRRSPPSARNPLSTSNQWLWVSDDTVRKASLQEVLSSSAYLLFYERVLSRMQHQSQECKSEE

Row | SMILES | IC50
1 | N#Cc1cccc(-n2cc(NC(=O)[C@@]3(F)CCCN(C#N)C3)nn2)c1 [Example 82, (R)-1-Cyano-N-(1-(3-cyanophenyl)-1H-1,2,3-triazol-4-yl)-3-fluoropiperidine-3-carboxamide] | 100 to 1000 nM
2 | N#Cc1cccc(-n2cnc(NC(=O)[C@@]3(F)CCCN(C#N)C3)n2)c1 [Example 83, (R)-1-Cyano-N-(1-(3-cyanophenyl)-1H-1,2,4-triazol-3-yl)-3-fluoropiperidine-3-carboxamide] | 100 to 1000 nM
3 | N#CN1CCC[C@](F)(C(=O)Nc2ccc(-c3cccc4cn[nH]c34)cn2)C1 [Example 84, (R)—N-(5-(1H-Indazol-7-yl)pyridin-2-yl)-1-cyano-3-fluoropiperidine-3-carboxamide] | < 100 nM
4 | N#CN1CCC[C@](F)(C(=O)Nc2ccc(-c3cccc4[nH]ncc34)cn2)C1 [Example 85, (R)—N-(5-(1H-Indazol-4-yl)pyridin-2-yl)-1-cyano-3-fluoropiperidine-3-carboxamide] | < 100 nM
5 | N#CN1CCC[C@](F)(C(=O)Nc2cnc(-c3cccc4[nH]ncc34)cn2)C1 [Example 87, (R)—N-(5-(1H-Indazol-4-yl)pyrazin-2-yl)-1-cyano-3-fluoropiperidine-3-carboxamide] | < 100 nM
6 | N#CN1CCC[C@](F)(C(=O)Nc2ccc(-c3nccc4cn[nH]c34)cn2)C1 [Example 89, (R)—N-(5-(1H-Pyrazolo[3,4-c]pyridin-7-yl)pyridin-2-yl)-1-cyano-3-fluoropiperidine-3-carboxamide] | < 100 nM
7 | N#CN1CCC[C@](F)(C(=O)Nc2ncc(-c3cccc4cn[nH]c34)cn2)C1 [Example 92, (R)—N-(5-(1H-Indazol-7-yl)pyrimidin-2-yl)-1-cyano-3-fluoropiperidine-3-carboxamide] | < 100 nM

Next, values leading:

Row | IC50 | SMILES
8 | < 100 nM | N#CN1CCC[C@](F)(C(=O)Nc2cnc(-c3cccc4cn[nH]c34)cn2)C1 [Example 86, (R)—N-(5-(1H-Indazol-7-yl)pyrazin-2-yl)-1-cyano-3-fluoropiperidine-3-carboxamide]
9 | < 100 nM | N#CN1CCC[C@](F)(C(=O)Nc2ccc(-c3cccc4cn[nH]c34)nn2)C1 [Example 88, (R)—N-(6-(1H-indazol-7-yl)pyridazin-3-yl)-1-cyano-3-fluoropiperidine-3-carboxamide]
10 | < 100 nM | N#CN1CCC[C@](F)(C(=O)Nc2ccc(-c3cccc4[nH]ncc34)nn2)C1 [Example 91, (R)—N-(6-(1H-Indazol-4-yl)pyridazin-3-yl)-1-cyano-3-fluoropiperidine-3-carboxamide]
